Laboratory results reported in patent publication EP0877740B1, “THIOL DERIVATIVES WITH METALLOPEPTIDASE INHIBITORY ACTIVITY” (ZAMBON GROUP S.p.A., priority 1995, dated 1997).

Tests used:
ACE = biological target: T1, ACE (Oryctolagus cuniculus, UniProt P12822); assay: In vitro ACE-inhibitory activity (FAPGG substrate, spectrophotometric); format: biochemical; conditions: ACE purified by lung rabbit, FAPGG 0.8 mM, 37°C
T1 construct: ACE (250 mU/ml purified by lung rabbit, EC 3.4.15.1 SIGMA); purchased SIGMA; host or cells: rabbit lung (tissue-purified)
T1 sequence (P12822 34-1310): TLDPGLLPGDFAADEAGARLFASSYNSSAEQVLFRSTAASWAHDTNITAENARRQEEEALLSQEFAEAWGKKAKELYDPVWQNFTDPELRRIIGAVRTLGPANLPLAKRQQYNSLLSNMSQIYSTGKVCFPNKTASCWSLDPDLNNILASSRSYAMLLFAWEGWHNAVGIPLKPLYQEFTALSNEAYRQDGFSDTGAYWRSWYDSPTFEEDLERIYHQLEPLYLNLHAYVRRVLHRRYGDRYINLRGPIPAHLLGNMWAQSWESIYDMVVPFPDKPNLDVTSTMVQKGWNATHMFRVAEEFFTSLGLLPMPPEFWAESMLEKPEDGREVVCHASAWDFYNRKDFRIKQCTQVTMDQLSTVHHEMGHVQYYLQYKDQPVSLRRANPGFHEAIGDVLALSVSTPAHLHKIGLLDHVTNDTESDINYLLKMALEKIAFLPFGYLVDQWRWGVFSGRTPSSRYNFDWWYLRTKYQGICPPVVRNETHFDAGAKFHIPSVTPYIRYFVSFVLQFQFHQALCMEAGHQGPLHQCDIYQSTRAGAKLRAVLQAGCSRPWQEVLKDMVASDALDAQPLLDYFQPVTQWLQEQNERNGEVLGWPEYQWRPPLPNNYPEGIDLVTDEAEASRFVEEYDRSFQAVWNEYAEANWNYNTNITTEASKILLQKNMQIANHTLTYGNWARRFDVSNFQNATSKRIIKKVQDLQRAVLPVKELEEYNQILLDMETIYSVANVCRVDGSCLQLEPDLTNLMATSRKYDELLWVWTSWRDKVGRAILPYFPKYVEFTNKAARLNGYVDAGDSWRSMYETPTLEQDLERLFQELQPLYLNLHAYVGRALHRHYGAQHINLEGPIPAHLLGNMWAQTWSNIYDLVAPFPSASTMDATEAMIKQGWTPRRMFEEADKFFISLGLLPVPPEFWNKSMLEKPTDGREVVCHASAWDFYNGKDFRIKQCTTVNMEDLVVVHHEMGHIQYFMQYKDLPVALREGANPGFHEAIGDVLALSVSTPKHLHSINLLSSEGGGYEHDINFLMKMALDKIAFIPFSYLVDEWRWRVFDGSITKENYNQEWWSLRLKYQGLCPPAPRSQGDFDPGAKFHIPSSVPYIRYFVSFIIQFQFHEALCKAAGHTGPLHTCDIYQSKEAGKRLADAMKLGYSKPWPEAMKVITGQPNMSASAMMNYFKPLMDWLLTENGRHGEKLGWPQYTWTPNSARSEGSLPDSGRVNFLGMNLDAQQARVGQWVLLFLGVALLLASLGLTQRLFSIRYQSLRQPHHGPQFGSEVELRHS
Description: […] of ACE (250 mU/ml purified by lung rabbit, EC 3.4.15.1 SIGMA) were preincubated with 50 µl of the compound of formula I or of the reference compound or related vehicle in thermostated cuvettes at 37°C.
The reaction was started by adding furylacryloylphenylalanylglycylglycine 0.8 mM (FAPGG-SIGMA).
Contemporaneously, by using a Beckman DU-50 spectrophotometer provided with a program for calculating delta A/minutes and regression coefficients of the enzyme kinetics curves, the absorbance at 340 nm was recorded in continuo for 5 minutes.
The percentage of the enzyme inhibition in the preparations treated with the compounds of formula I or with the comparative compounds with respect to the untreated preparations was expressed as IC50 (nM) value.

NEP = biological target: T2, NEP (Rattus norvegicus, UniProt P07861); assay: In vitro NEP-inhibitory activity in rat kidney cortex membranes ([3H][Leu5]-enkephaline hydrolysis); format: biochemical; set-up: Kidneys were removed from male Sprague-Dawley rats weighing approximately 300 g; from tissue; host or cells: rat kidney cortex membranes (male Sprague-Dawley); conditions: [3H][Leu5]-enkephaline 15 nM, 30°C
T2 sequence (P07861 1-750): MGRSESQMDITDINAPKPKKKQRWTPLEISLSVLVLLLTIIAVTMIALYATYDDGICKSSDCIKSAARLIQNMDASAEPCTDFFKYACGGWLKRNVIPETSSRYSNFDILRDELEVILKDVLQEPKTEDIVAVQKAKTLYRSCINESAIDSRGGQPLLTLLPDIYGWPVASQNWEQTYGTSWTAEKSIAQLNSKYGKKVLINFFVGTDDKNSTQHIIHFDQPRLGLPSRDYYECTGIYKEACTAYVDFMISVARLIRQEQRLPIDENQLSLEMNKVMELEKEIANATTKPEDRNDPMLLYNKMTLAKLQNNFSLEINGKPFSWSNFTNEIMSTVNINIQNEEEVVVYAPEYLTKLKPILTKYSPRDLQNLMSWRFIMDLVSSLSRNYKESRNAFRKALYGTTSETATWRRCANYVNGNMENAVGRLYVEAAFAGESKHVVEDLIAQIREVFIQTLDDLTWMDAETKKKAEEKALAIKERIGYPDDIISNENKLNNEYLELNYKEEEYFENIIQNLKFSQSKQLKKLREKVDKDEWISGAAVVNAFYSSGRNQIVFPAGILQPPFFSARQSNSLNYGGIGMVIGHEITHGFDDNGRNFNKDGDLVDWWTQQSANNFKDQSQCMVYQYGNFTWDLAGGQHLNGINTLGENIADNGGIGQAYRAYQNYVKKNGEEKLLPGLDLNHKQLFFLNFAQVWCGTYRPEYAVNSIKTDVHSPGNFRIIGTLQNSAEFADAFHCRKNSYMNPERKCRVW
Description: The NEP-inhibitory activity was evaluated in rat kidney cortex membranes prepared according to the procedure described by T. Maeda et al. in Biochim. Biophys.
Kidneys were removed from male Sprague-Dawley rats weighing approximately 300 g and kept at 4°C.
Kidney cortex was carefully dissected, finely minced and suspended in a homogenization buffer (10 mM sodium phosphate pH 7.4 containing 1 mM MgCl2, 30 mM NaCl, 0.02% NaN3) 1:15 weight/volume.
The tissue was then cold homogenized for 30 seconds using an Ultra-Turrax homogenizer.
The membranes were collected from the buffer/sucrose interface, washed twice with 50 mM TRIS/HCl buffer (pH 7.4) and resuspended into the same buffer for storage in small aliquots at -80°C until use.
The NEP-inhibitory activity was evaluated by using the method described by C.
Aliquots of the membrane suspension prepared as above described (concentration 5 µg/ml of proteins) were preincubated in the presence of an aminopeptidase inhibitor (Bestatin - 1 mM) for 10 minutes at 30°C.
Incubation (20 minutes at 30°C) was stopped by adding HCI 0.1M (100 µl).
The formation of the metabolite [^3H]Tyr-Gly-Gly was quantified by chromatography on polystyrene columns (Porapak Q).
The percentage of inhibition of the metabolite formation in the membrane preparations treated with the compounds of formula I and with the comparative compounds with respect to the untreated membrane preparations was expressed as IC50 (nM) value.

Question: What does the source list for `O=C(N[C@@H](Cc1ccc(-c2nccs2)cc1)C(=O)O)C(CS)Cc1cccnc1` (single isomer, unassigned) [Compound 27, N-[3-mercapto-2-(3-pyridylmethyl)propionyl]-4-(2-thiazolyl)-L-phenylalanine]?
Answer: IC50 (ACE): 9.1 nM; IC50 (NEP): 17.3 nM

Question: Which “NEP-inhibitory activity IC50 (nM)” value (NEP) does the source give for `C[C@H](CS)C(=O)N1CCC[C@H]1C(=O)O` [Captopril, reference compound] here?
Answer: The value was “not active”.

Question: `O=C(N[C@@H](Cc1ccc(-c2ccco2)cc1)C(=O)O)[C@@H](CS)Cc1ccccc1` [Compound 18, N-[(2S)-3-mercapto-2-phenylmethylpropionyl]-4-(2-furyl)-L-phenylalanine] was tested. Which IC50 (ACE) did it give?
Answer: The IC50 was 1.8 nM.

Question: And the IC50 (NEP)?
Answer: Its IC50 is 1.8 nM.

Question: `O=C(N[C@@H](Cc1ccc(-c2cncnc2)cc1)C(=O)O)[C@@H](CS)Cc1ccccc1` [Compound 19, N-[(2S)-3-mercapto-2-phenylmethylpropionyl]-4-(5-pyrimidinyl)-L-phenylalanine] was tested. Which IC50 (ACE) did it give?
Answer: The IC50 was 1.9 nM.

Question: And the IC50 (NEP)?
Answer: The IC50 was 1.8 nM.

Question: Which IC50 (ACE) does the source give for `O=C(N[C@@H](Cc1ccc(-c2cnccn2)cc1)C(=O)O)[C@@H](CS)Cc1ccccc1` [Compound 20, N-[(2S)-3-mercapto-2-phenylmethylpropionyl]-4-(2-pyrazinyl)-L-phenylalanine] here?
Answer: Its IC50 is 1.5 nM.

Question: What about the IC50 (NEP) of the same compound?
Answer: Its IC50 is 2.5 nM.

Question: Which IC50 (ACE) does the source give for `O=C(N[C@@H](Cc1ccc(-c2cccnc2)cc1)C(=O)O)[C@@H](CS)Cc1ccccc1` [Compound 21, N-[(2S)-3-mercapto-2-phenylmethylpropionyl]-4-(3-pyridyl)-L-phenylalanine] here?
Answer: The IC50 was 1.7 nM.

Question: What about the IC50 (NEP) of the same compound?
Answer: The IC50 was 2.6 nM.

Question: How did the IC50 (ACE) turn out when `O=C(N[C@@H](Cc1ccc(-c2ccccn2)cc1)C(=O)O)[C@@H](CS)Cc1ccccc1` [Compound 22, N-[(2S)-3-mercapto-2-phenylmethylpropionyl]-4-(2-pyridyl)-L-phenylalanine] was run?
Answer: Its IC50 is 1.8 nM.

Question: And the IC50 (NEP)?
Answer: The IC50 was 2 nM.

Question: Which results are given for `O=C(N[C@@H](Cc1ccc(-c2cccs2)cc1)C(=O)O)[C@@H](CS)Cc1ccccc1` [Compound 23, N-[(2S)-3-mercapto-2-phenylmethylpropionyl]-4-(2-thienyl)-L-phenylalanine]?
Answer: IC50 (ACE): 1.6 nM; IC50 (NEP): 0.6 nM

Question: `O=C(N[C@@H](Cc1ccc(-c2ccsc2)cc1)C(=O)O)[C@@H](CS)Cc1ccccc1` [Compound 24, N-[(2S)-3-mercapto-2-phenylmethylpropionyl]-4-(3-thienyl)-L-phenylalanine] was tested. Which IC50 (ACE) did it give?
Answer: The IC50 was 2.5 nM.

Question: And the IC50 (NEP)?
Answer: The IC50 was 1.3 nM.

Question: Which results are given for `O=C(N[C@@H](Cc1ccc(-c2ccoc2)cc1)C(=O)O)[C@@H](CS)Cc1ccccc1` [Compound 25, N-[(2S)-3-mercapto-2-phenylmethylpropionyl]-4-(3-furyl)-L-phenylalanine]?
Answer: IC50 (ACE): 2.4 nM; IC50 (NEP): 1 nM

Question: Which results are given for `CC(C)CC(CS)C(=O)N[C@@H](Cc1ccc(-c2nccs2)cc1)C(=O)O` (stereo partly drawn) [Compound 28, N-(2-isobutyl-3-mercapto-propionyl)-4-(2-thiazolyl)-L-phenylalanine]?
Answer: IC50 (ACE): 5.8 nM; IC50 (NEP): 1.8 nM

Question: `COc1cccc(CC(CS)C(=O)N[C@@H](Cc2ccc(-c3nccs3)cc2)C(=O)O)c1` (stereo partly drawn) [Compound 29, N-[3-mercapto-2-(3-methoxyphenyl)methyl-propionyl]-4-(2-thiazolyl)-L-phenylalanine] was tested. Which IC50 (ACE) did it give?
Answer: The IC50 was 4.6 nM.

Question: What about the IC50 (NEP) of the same compound?
Answer: The IC50 was 9 nM.

Question: With `O=C(N[C@@H](Cc1ccc(-c2nccs2)cc1)C(=O)O)C(CS)Cc1ccccc1F` (stereo partly drawn) [Compound 30, N-[3-mercapto-2-(2-fluorophenyl)methyl-propionyl]-4-(2-thiazolyl)-L-phenylalanine] as the compound, how does the IC50 (ACE) read?
Answer: The IC50 was 10.7 nM.

Question: And the IC50 (NEP)?
Answer: Its IC50 is 11.2 nM.

Question: `O=C(N[C@@H](Cc1ccc(-c2nccs2)cc1)C(=O)O)C(CS)Cc1cccs1` (stereo partly drawn) [Compound 31, N-[3-mercapto-2-(2-thienyl)methyl-proionyl]-4-(2-thiazolyl)-L-phenylalanine] was tested. Which IC50 (ACE) did it give?
Answer: Its IC50 is 8.6 nM.

Question: What about the IC50 (NEP) of the same compound?
Answer: Its IC50 is 1.2 nM.

Question: How did the IC50 (ACE) turn out when `O=C(N[C@@H](Cc1ccc(-c2nccs2)cc1)C(=O)O)C(CS)Cc1ccco1` (stereo partly drawn) [Compound 32, N-[3-mercapto-2-(2-furyl)methyl-propionyl]-4-(2-thiazolyl)-L-phenylalanine] was run?
Answer: Its IC50 is 8.6 nM.

Question: And the IC50 (NEP)?
Answer: The IC50 was 4 nM.
